Like-named read-outs stand apart in the source and are kept apart here.
Molecular target: T1, Menin-MLL (Homo sapiens, UniProt O00255)
T1 construct: His-Menin (M1-L615 end); purchased BIORTUS BP9210
T1 sequence (O00255 1-615 isoform O00255-1): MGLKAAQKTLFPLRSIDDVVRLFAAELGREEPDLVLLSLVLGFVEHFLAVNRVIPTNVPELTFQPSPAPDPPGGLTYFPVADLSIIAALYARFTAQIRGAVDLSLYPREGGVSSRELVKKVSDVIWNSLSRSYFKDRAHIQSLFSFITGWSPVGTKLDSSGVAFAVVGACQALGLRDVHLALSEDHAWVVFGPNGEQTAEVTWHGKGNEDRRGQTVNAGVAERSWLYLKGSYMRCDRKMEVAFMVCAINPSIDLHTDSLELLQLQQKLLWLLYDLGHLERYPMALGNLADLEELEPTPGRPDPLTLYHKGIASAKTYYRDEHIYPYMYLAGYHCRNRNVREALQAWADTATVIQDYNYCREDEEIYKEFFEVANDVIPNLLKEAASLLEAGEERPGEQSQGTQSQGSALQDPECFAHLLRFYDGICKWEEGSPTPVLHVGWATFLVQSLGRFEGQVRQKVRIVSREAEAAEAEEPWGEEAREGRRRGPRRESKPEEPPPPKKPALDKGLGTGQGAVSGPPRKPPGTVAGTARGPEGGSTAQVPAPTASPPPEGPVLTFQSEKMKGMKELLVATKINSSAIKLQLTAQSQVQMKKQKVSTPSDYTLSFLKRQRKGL
Assay: Inhibitory activity against Menin-MLL binding (fluorescence polarization)
Conditions: 150 nM His-Menin, 15 nM FITC-MLL, 25°C for 60 min
Procedure, shortened: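 Fluorescence polarization competition: compound and 150 nM His-tagged menin (residues M1-L615) sit 15 min at 25 °C in pH 7.5 HEPES buffer with NaCl, DTT and BSA; 15 nM FITC-labelled MLL peptide then binds for 60 min. IC50 fitted sigmoidally from mP values, duplicate wells.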

[1] = fluorescence polarization, read-out: Menin-MLL IC50
[2] = Menin-MLL IC50, fluorescence polarization

Compound	IC50 [1] [nM]	IC50 [2] [nM]
CCN(C(=O)c1cc(F)ccc1-c1cc(C2CN([C@@H](CN3CCS(=O)(=O)CC3)C(C)C)C2)cn2c(C)ncc12)C(C)C [Example 441-2, 2-(6-{1-[(2R)-1-(1,1-dioxo-thiomorpholin-4-yl)-3-methylbutan-2-yl]azacyclobutan-3-yl}-3-methylimidazo[1,5-a]pyridin-8-yl)-N-ethyl-5-fluoro-N-(isopropyl)benzamide]	110	
CCN(C(=O)c1cc(F)ccc1-c1cc(C2CN([C@H](CN3CCN(C(C)=O)CC3)C(C)C)C2)cn2c(C)ncc12)C(C)C [Example 443]	19.5	
CCN(C(=O)c1cc(F)ccc1-c1cc(C2CN(C(CN3CCC(OC)CC3)C(C)C)C2)cn2c(C)ncc12)C(C)C (centres unmarked) [Example 444]	45	
CCN(C(=O)c1cc(F)ccc1-c1cc(C2CN([C@H](CN3C[C@@H](O)[C@H](O)C3)C(C)C)C2)cn2c(C)ncc12)C(C)C [Example 446-1, 2-(6-{1-[(2S)-1-[(3R,4R)-3,4-dihydroxylpyrrolidin-1-yl]-3-methylbutan-2-yl]azacyclobutan-3-yl}-3-methylimidazo[1,5-a]pyridin-8-yl)-N-ethyl-5-fluoro-N-(isopropyl)benzamide]	7.3	
CCN(C(=O)c1cc(F)ccc1-c1cc(C2CN([C@@H](CN3C[C@@H](O)[C@H](O)C3)C(C)C)C2)cn2c(C)ncc12)C(C)C [Example 446-2, 2-(6-{1-[(2R)-1-[(3R,4R)-3,4-dihydroxylpyrrolidin-1-yl]-3-methylbutan-2-yl]azacyclobutan-3-yl}-3-methylimidazo[1,5-a]pyridin-8-yl)-N-ethyl-5-fluoro-N-(isopropyl)benzamide]	44	
CCN(C(=O)c1cc(F)ccc1-c1cc(C2CN(C(CCC3(O)COC3)C(C)C)C2)cn2c(C)ncc12)C(C)C (centres unmarked) [Example 447, N-ethyl-5-fluoro-2-(6-{1-[1-(3-hydroxyloxacyclobutan-3-yl)-4-methylpentan-3-yl]azacyclobut-3-yl}-3-methylimidazo[1,5-a]pyridin-8-yl)-N-(isopropyl)benzamide]	25	
Cc1ncc2c(-c3ccc(F)cc3C(=O)N(C)C(C)C)cc(C3CN([C@@H](CCCN4CCN(CCO)CC4)C(C)C)C3)cn12 [Example 448-1]	120	
CCN(C(=O)c1cc(F)ccc1-c1cc(C2CN(C(CCN3CCN(CCO)CC3)C(C)C)C2)cn2c(C)ncc12)C(C)C (centres unmarked) [Example 456, N-ethyl-5-fluoro-2-[6-(1-{1-[4-(2-hydroxyethyl)piperazin-1-yl]-4-methylpentan-3-yl}azacyclobutan-3-yl)-3-methylimidazo[1,5-a]pyridin-8-yl]-N-(isopropyl)benzamide]	14	
CCN(C(=O)c1cc(F)ccc1-c1cc(C2CN(C(C[C@@H]3CN(C(=O)OC(C)(C)C)CCO3)C(C)C)C2)cn2c(C)ncc12)C(C)C (stereo partly drawn) [Example 461, (2R)-2-{2-[3-(8-{2-[ethyl(isopropyl)aminoformyl]-4-fluorophenyl}-3-methylimidazo[1,5-a]pyridin-6-yl)azacyclobutan-1-yl]-3-methylbutyl}morpholin-4-tert-butyl carboxylate]	43	
CCN(C(=O)c1cc(F)ccc1-c1cc(C2CN(C(C[C@@H]3CNCCO3)C(C)C)C2)cn2c(C)ncc12)C(C)C (stereo partly drawn) [Example 462, N-ethyl-5-fluoro-2-[3-methyl-6-(1-{3-methyl-1-[(2R)-morpholin-2-yl]butan-2-yl}azacyclobutan-3-yl)imidazo[1,5-a]pyridin-8-yl]-N-(isopropyl)benzamide]	11	
CCN(C(=O)c1cc(F)ccc1-c1cc(C2CN(C(CCCN3C[C@H]4C[C@@H]3CO4)C(C)C)C2)cc2c(C)ncn12)C(C)C (stereo partly drawn) [Example 465, N-ethyl-5-fluoro-2-[1-methyl-7-(1-{2-methyl-6-[(1R,4R)-2-oxa-5-azabicyclo[2.2.1]heptan-5-yl]hexan-3-yl}azacyclobutan-3-yl)imidazo[1,5-a]pyridin-5-yl]-N-(isopropyl)benzamide]	3.1	
CCN(C(=O)c1cc(F)ccc1-c1cc(C2CN(C(CCCN3CCN(CCO)CC3)C(C)C)C2)cc2c(C)ncn12)C(C)C (centres unmarked) [Example 466, N-ethyl-5-fluoro-2-[7-(1-{6-[4-(2-hydroxyethyl)piperazin-1-yl]-2-methylhexan-3-yl}azacyclobutan-3-yl)-1-methylimidazo[1,5-a]pyridin-5-yl]-N-(isopropyl)benzamide]	2.9	
COCCN(C(=O)c1cc(F)ccc1-c1cc(C2CN([C@@H](CCCN3C[C@H]4C[C@@H]3CO4)C(C)C)C2)cn2c(C)ncc12)C(C)C [Example 467-2, 5-fluoro-N-(2-methoxyethyl)-2-(3-methyl-6-{1-[(3S)-2-methyl-6-[(1R,4R)-2-oxa-5-azadicyclo[2.2.1]heptan-5-yl]hexan-3-yl]azacyclobutan-3-yl}imidazo[1,5-a]pyridin-8-yl)-N-(isopropyl)benzamide]		54
COCCN(C(=O)c1cc(F)ccc1-c1cc(C2CN(C(CCCN3C[C@H]4C[C@@H]3CO4)C(C)C)C2)cn2c(C)ncc12)C(C)C (some centres unmarked) [Example 467]		5
CCN(C(=O)c1cc(F)ccc1-c1cc(C2CN(C(CC[C@@H]3COCCN3CCO)C(C)C)C2)cn2c(C)ncc12)C(C)C (stereo partly drawn) [Example 469, N-ethyl-5-fluoro-2-[6-(1-{1-[(3R)-4-(2-hydroxyethyl)morpholin-3-yl]-4-methylpentan-3-yl}azacyclobutan-3-yl)-3-methylimidazo[1,5-a]pyridin-8-yl]-N-(isopropyl)benzamide]	11	
CCOC(=O)N1CCN(CCC[C@H](C(C)C)N2CC(c3cc(-c4ccc(F)cc4C(=O)N(CC)C(C)C)c4cnc(C)n4c3)C2)CC1 [Example 471]		4.8

More lines, main results first:

IC50 [1] [nM]	Compound	IC50 [2] [nM]
34	CCN(C(=O)c1cc(F)ccc1-c1cc(C2CN([C@@H](CC[C@@H]3COCCN3)C(C)C)C2)cn2c(C)ncc12)C(C)C [Example 449-2, N-ethyl-5-fluoro-2-(3-methyl-6-{1-[(3S)-4-methyl-1-[(3R)-morpholin-3-yl]pentan-3-yl]azacyclobutan-3-yl}imidazo[1,5-a]pyridin-8-yl)-N-(isopropyl)benzamide]	
7.7	CCN(C(=O)c1cc(F)ccc1-c1cc(C2CN([C@H](CCCN3CCN(C(=O)OC(C)(C)C)CC3)C(C)C)C2)cn2c(C)ncc12)C(C)C [Example 454-1, 4-[(4R)-4-[3-(8-{2-[ethyl(isopropyl)aminoformyl]-4-fluorophenyl}-3-methylimidazo[1,5-a]pyridin-6-yl)azacyclobutan-1-yl]-5-methylhexyl]piperazin-1-tert-butyl carboxylate]	
80	CCN(C(=O)c1cc(F)ccc1-c1cc(C2CN([C@@H](CCCN3CCN(C(=O)OC(C)(C)C)CC3)C(C)C)C2)cn2c(C)ncc12)C(C)C [Example 454-2, 4-[(4S)-4-[3-(8-{2-[ethyl(isopropyl)aminoformyl]-4-fluorophenyl}-3-methylimidazo[1,5-a]pyridin-6-yl)azacyclobutan-1-yl]-5-methylhexyl]piperazin-1-tert-butyl carboxylate]	
40	CCN(C(=O)c1cc(F)ccc1-c1cc(C2CN([C@@H](CC[C@H]3COCCN3)C(C)C)C2)cn2c(C)ncc12)C(C)C [Example 457-1, N-ethyl-5-fluoro-2-(3-methyl-6-{1-[(3S)-4-methyl-1-[(3S)-morpholin-3-yl]pentan-3-yl]azacyclobutan-3-yl}imidazo[1,5-a]pyridin-8-yl)-N-(isopropyl)benzamide]	
40	Cc1ncc2c(-c3ccc(F)cc3C(=O)N(CC(F)F)C(C)C)cc(C3CN([C@@H](CCCN4CCN(CCO)CC4)C(C)C)C3)cn12 [Example 459-2, N-(2,2-difluoroethyl)-5-fluoro-2-(6-{1-[(3S)-6-[4-(2-hydroxylethyl)piperazin-1-yl]-2-methylhexan-3-yl]azacyclobutan-3-yl}-3-methyl-imidazo[1,5-a]pyridin-8-yl)-N-(isopropyl)benzamide]	
15	CCN(C(=O)c1cc(F)ccc1-c1cc(C2(O)CN([C@H](CCCN3CCN(CCO)CC3)C(C)C)C2)cn2c(C)ncc12)C(C)C [Example 464-1, N-ethyl-5-fluoro-2-(6-{3-hydroxyl-1-[(3R)-6-[4-(2-hydroxylethyl)piperazin-1-yl]-2-methylhexan-3-yl]azacyclobutan-3-yl}-3-methylimidazo[1,5-a]pyridin-8-yl)-N-(isopropyl)benzamide]	
190	CCN(C(=O)c1cc(F)ccc1-c1cc(C2(O)CN([C@@H](CCCN3CCN(CCO)CC3)C(C)C)C2)cn2c(C)ncc12)C(C)C [Example 464-2, N-ethyl-5-fluoro-2-(6-{3-hydroxyl-1-[(3S)-6-[4-(2-hydroxylethyl)piperazin-1-yl]-2-methylhexan-3-yl]azacyclobutan-3-yl}-3-methylimidazo[1,5-a]pyridin-8-yl)-N-(isopropyl)benzamide]	
